Experimental data: patent US8916501B2, “Herbicidal compositions” (BASF SE, priority 2010, dated 2014)

Experiments:
Conditions in all cases: scale 0 to 100
ZEAMX = assay: greenhouse pre-emergence treatment, damage to crop plant ZEAMX; format: in vivo, Zea mays
Text: (§1) The seeds of the test plants were sown separately for each species. For the pre-emergence treatment, the active ingredients, which had been suspended or emulsified in water, were applied directly after sowing by means of finely distributing nozzles. The containers were irrigated gently to promote germination and growth and subsequently covered with transparent plastic hoods until the plants had emerged. This cover caused uniform germination of the test plants, unless this has been impaired by the active ingredients. The respective benzoxazinone of formula I was formulated as a 5% by weight strength emulsion concentrate, and the safener of formula II as a 5% by weight emulsion concentrate. Optional component C can be used in its appropriate available formulation type. The benzoxazinone of formula I, the safener of formula II, and optional component C were introduced to the spray liquid with the amount of solvent system used for applying the active compound. The test period extended over 20 days. During this time, the plants were tended, and their response to the treatments with active compound was evaluated. Depending on the species, the plants were kept at 10-25° C. or 20-35° C. During the test period the plants were tended, and their response to the individual treatments was evaluated. Evaluation was carried out using a scale from 0 to 100. 100 means no emergence of the plants, or complete destruction of at least the aerial moieties, and 0 means no damage, or normal course of growth. A good herbicidal activity is given at values of at least 70 and a very good herbicidal activity is given at values of at least 85. A safener action is present if the damage to the crop plant caused by a mixture according to the present invention which contains a benzoxazinone of formula I and a safener of formula II is less than the damage caused when the benzoxazinone of formula I (optionally in mixture with a further herbicide C) according to the present invention is used without the safener of formula II.

SETFA [1] = assay: greenhouse post-emergence treatment, herbicidal action against SETFA; format: in vivo, Setaria faberi
Text: (§2) The seeds of the test plants were sown separately for each species. For the post-emergence treatment, the test plants were first grown to a height of 1 to 15 cm, depending on the plant habit, and only then treated with the active ingredients which had been suspended or emulsified in water. For this purpose, the test plants were either sown directly and grown in the same containers, or they were first grown separately as seedlings and transplanted into the test containers a few days prior to treatment. The respective benzoxazinone of formula I was formulated as a 5% by weight strength emulsion concentrate, and the safener of formula II as a 5% by weight emulsion concentrate. Optional component C can be used in its appropriate available formulation type. The benzoxazinone of formula I, the safener of formula II, and optional component C were introduced to the spray liquid with the amount of solvent system used for applying the active compound. The test period extended over 20 days. During this time, the plants were tended, and their response to the treatments with active compound was evaluated. Depending on the species, the plants were kept at 10-25° C. or 20-35° C. During the test period the plants were tended, and their response to the individual treatments was evaluated. Evaluation was carried out using a scale from 0 to 100. […]

TRZAW = assay: greenhouse pre-emergence treatment, damage to crop plant TRZAW; format: in vivo
Text: as §1

ORYSA [2] = assay: greenhouse pre-emergence treatment, damage to crop plant ORYSA; format: in vivo, Oryza sativa
Text: as §1

ORYSA [3] = assay: greenhouse post-emergence treatment, damage to crop plant ORYSA; format: in vivo, Oryza sativa
Text: as §2

SETFA [4] = assay: greenhouse pre-emergence treatment, herbicidal action against SETFA; format: in vivo, Setaria faberi
Text: as §1, with “85.” for “85. A safener action is present if the damage to the crop plant caused by a mixture according to the present invention which contains a benzoxazinone of formula I and a safener of formula II is less than the damage caused when the benzoxazinone of formula I (optionally in mixture with a further herbicide C) according to the present invention is used without the safener of formula II.”

[5] = Example 1, I.a.35 50 g/ha alone
[6] = Example 2, I.a.35 25 g/ha alone
[7] = Example 3, I.a.35 12.5 g/ha alone
[8] = Example 4, I.a.35 25 g/ha alone
[9] = Example 1, II.a.12 150 g/ha alone
[10] = Example 2, II.a.12 75 g/ha alone
[11] = Example 3, II.a.12 150 g/ha alone
[12] = Example 4, II.a.12 75 g/ha alone

C#CCN1C(=O)C(F)(F)Oc2cc(F)c(-n3c(=O)n(C)c(=S)n(C)c3=O)cc21 [I.a.35, 1,5-dimethyl-6-thioxo-3-(2,2,7-trifluoro-3-oxo-4-(prop-2-ynyl)-3,4-dihydro-2H-benzo[b][1,4]oxazin-6-yl)-1,3,5-triazinane-2,4-dione]
25: damage to crop plant ZEAMX (ZEAMX; [7])
90: herbicidal action against SETFA (SETFA [4]; [7])
100: herbicidal action against SETFA (SETFA [1]; [8]) | herbicidal action against SETFA (SETFA [4]; [5]) | herbicidal action against SETFA (SETFA [4]; [6])
30: damage to crop plant ORYSA (ORYSA [2]; [7])
60: damage to crop plant TRZAW (TRZAW; [6]) | damage to crop plant ORYSA (ORYSA [3]; [8])
65: damage to crop plant ZEAMX (ZEAMX; [5]) | damage to crop plant TRZAW (TRZAW; [5]) | damage to crop plant ORYSA (ORYSA [2]; [5])
45: damage to crop plant TRZAW (TRZAW; [7])
40: damage to crop plant ZEAMX (ZEAMX; [6]) | damage to crop plant ORYSA (ORYSA [2]; [6])

CNC(=O)Nc1ccc(S(=O)(=O)NC(=O)c2ccccc2OC)cc1 [II.a.12]
0: damage to crop plant ZEAMX (ZEAMX; [9]) | damage to crop plant ZEAMX (ZEAMX; [10]) | damage to crop plant ZEAMX (ZEAMX; [11]) | herbicidal action against SETFA (SETFA [1]; [12]) | damage to crop plant TRZAW (TRZAW; [9]) | damage to crop plant TRZAW (TRZAW; [10]) | damage to crop plant TRZAW (TRZAW; [11]) | damage to crop plant ORYSA (ORYSA [2]; [9]) | damage to crop plant ORYSA (ORYSA [2]; [10]) | damage to crop plant ORYSA (ORYSA [2]; [11]) | damage to crop plant ORYSA (ORYSA [3]; [12]) | herbicidal action against SETFA (SETFA [4]; [9]) | herbicidal action against SETFA (SETFA [4]; [10]) | herbicidal action against SETFA (SETFA [4]; [11])
